Laboratory results published in US11787847B2, “Method of identifying malodor modulating compounds” (FIRMENICH SA, priority 2017, dated 2023).
pEC50: −log10 of the molar value.

Tests used:
[1] = target: T1, human receptor OR52N5 (Homo sapiens, UniProt Q8NH56); assay: cell-based dose-response, cAMP increase by HTRF, HEK293T cells (endogenous RTP1 activated) co-transfected with human Golf, Rho-FLAG tagged receptor; conditions: FIG. 2, Example 2, SEQ ID NO: 24
T1 construct: the human receptors were tagged with a Rho-FLAG® tag combination; expressed in transfected cells
T1 sequence (Q8NH56 1-324): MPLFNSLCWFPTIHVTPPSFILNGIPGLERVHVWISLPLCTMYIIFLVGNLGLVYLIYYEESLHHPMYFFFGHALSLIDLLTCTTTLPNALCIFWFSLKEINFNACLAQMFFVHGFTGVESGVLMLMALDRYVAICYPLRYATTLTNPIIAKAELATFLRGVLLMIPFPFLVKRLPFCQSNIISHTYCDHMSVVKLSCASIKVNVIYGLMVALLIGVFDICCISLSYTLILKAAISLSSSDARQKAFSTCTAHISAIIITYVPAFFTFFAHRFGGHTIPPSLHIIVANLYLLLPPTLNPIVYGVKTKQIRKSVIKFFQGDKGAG
Description: (§1) Functional dose-response experiments were performed to evaluate the level of DMTS activity of the modified cell line expressing individual putative DMTS receptors. Using a cell-based assay, mouse receptor Olfr1193, Olfr1093, Olfr1097, Olrf166, Olfr169, Olfr738 and Olfr742, and human receptor OR4S2 and OR52N5 were tested in an HEK293T cell line wherein the endogenous RTP1 gene has been activated and the odorant receptor chaperone protein was expressed (described in WO2016/201153). The mouse receptor genes were tagged with a Lucy-FLAG®-Rho tag combination and the human receptors were tagged with a Rho-FLAG® tag combination resulting in a tag:receptor fusion protein for the cell based assay. Receptor genes were co-transfected with the canonical olfactory human G-protein alpha subunit Golf gene and were exposed to increasing concentrations of the malodor odorant. Co-expression of the human Golf activates the Gs transduction pathway that leads to an internal cAMP increase upon binding to the appropriate ligand. Odorant-induced activity was detected by measuring the cAMP increase in the cytosol using an Homogeneous Time Resolved Fluorescence (HTRF) based kit (CisBio, cAMP dynamic 2 kit, cat. 62AM4PEJ). […]

[2] = system: human receptors OR2L13, OR4C15, OR5AC2, OR8H3, OR11G2 or OR52N2; assay: Ca2+ (Calcium 5 dye, FLIPR) dose-response assay in stable HEK293T cell lines (Example 3); format: cell-based; conditions: increasing concentrations of DMTS, co-expressed Galpha15
Description: (§2) Functional dose-response experiments were performed to evaluate the level of DMTS activity of the modified cell lines expressing individual putative DMTS receptors. A cell line stably expressing a human receptor was generated in a HEK293T cell line for each of the following human receptors: OR2L13, OR4C15, OR5AC2, OR8H3, OR11G2 or OR52N2. The receptors were tagged with a FLAG®-Rho tag combination and stably co-expressed with the human G-protein alpha subunit Gals for the cell based assay. Co-expression of the human Gals activates the Gq transduction pathway that leads to an internal Ca^2+ increase upon binding to the appropriate ligand. Receptors were exposed to increasing concentrations of DMTS. Odorant-induced activity was detected by measuring the Ca^2+ increase in the cytosol using a calcium sensitive fluorescent dye (Molecular Devices, Calcium 5 dye, cat. R8186) and measuring the change in Relative Fluorescence Ratio (RFU) using a fluorometric imaging plate reader (Molecular Devices, FLIPR) following odorant exposure. […] A cell line lacking a receptor was used as a control for non-specific activity at high compound concentrations (‘No receptor’). The activity levels are reported by the potency of the DMTS induced-response for each receptor as a measure of the EC50 value.

[3] = target: T2, OR4S2 (Homo sapiens, UniProt Q8NH73); assay: cell-based dose-response, cAMP increase by HTRF, HEK293T cells (endogenous RTP1 activated) co-transfected with human Golf, Rho-FLAG tagged receptor; design: the human receptors were tagged with a Rho-FLAG® tag combination; expressed in transfected cells
T2 sequence (Q8NH73 1-311): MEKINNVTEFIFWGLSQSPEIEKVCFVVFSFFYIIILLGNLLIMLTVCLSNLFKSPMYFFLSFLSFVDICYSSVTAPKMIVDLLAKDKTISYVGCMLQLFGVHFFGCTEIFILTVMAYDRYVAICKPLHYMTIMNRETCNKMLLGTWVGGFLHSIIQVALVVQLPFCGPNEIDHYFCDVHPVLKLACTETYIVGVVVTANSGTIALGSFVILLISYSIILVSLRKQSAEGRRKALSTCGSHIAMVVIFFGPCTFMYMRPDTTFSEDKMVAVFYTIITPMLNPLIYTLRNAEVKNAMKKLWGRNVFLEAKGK
Description: as §1

[4] = system: mouse receptor Olfr1193, Olfr1093, Olfr1097, Olrf166, Olfr169, Olfr738 and Olfr742, and human receptor OR4S2 and OR52N5; assay: cAMP HTRF dose-response assay in HEK293T cells expressing odorant receptors (Example 2); format: cell-based; conditions: increasing concentrations of odorant, receptors co-transfected with human Golf
[5] = system: mouse receptors Olfr1193, Olfr1093, Olfr1097, Olfr166, Olfr169, Olfr738, Olfr742 and human odorant receptor OR4S2; assay: cAMP HTRF dose-response assay, DMTS/DMDS response profiles (Example 5); format: cell-based; conditions: increasing concentration of compound; relative to butyric acid control
Description: as §1

[6] = target: T3, human receptor OR8H3 (Homo sapiens, UniProt Q8N146); assay: cell-based dose-response, Ca2+ increase (Calcium 5 dye, FLIPR), HEK293T line stably expressing FLAG-Rho tagged receptor with human Gα15; conditions: FIG. 3, Example 3, SEQ ID NO: 34, stable HEK293T
T3 construct: The receptors were tagged with a FLAG®-Rho tag combination; expressed in transfected cells
T3 sequence (Q8N146 1-312): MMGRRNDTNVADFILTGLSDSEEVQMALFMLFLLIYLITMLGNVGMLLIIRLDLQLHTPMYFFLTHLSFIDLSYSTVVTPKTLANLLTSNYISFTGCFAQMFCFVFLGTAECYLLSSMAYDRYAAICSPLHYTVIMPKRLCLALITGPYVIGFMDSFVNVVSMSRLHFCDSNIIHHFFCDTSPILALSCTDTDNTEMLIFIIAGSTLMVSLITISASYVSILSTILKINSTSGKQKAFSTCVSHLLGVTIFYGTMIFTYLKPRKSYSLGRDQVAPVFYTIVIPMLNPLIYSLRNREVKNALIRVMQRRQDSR
Description: as §2

pEC50 [1]: 5.00
pEC50 ([3]; FIG. 2, Example 2, SEQ ID NO: 42): 5.70
pEC50 ([3]; FIG. 5, Example 5, SEQ ID NO: 42): 6.49
pEC50 [6]: 4.21
Compound: CSSSC [DMTS, dimethyl trisulfide]
receptor activity (Ca2+ increase in the cytosol, RFU) [2]: dose-dependent increase of receptor activity
receptor activity (cAMP increase in the cytosol) [4]: dose-dependent increase of the receptor activity
receptor activity (cAMP increase) [5]: strong dose-dependent increase of the receptor activity
